# Patent US20070072874A1, “Aminoheteroaryl compounds as protein kinase inhibitors” (Sugen, Inc., priority 2003, published 2007)
# Biological target: T1, GST fusion protein containing the Met kinase domain (Homo sapiens, UniProt P08581)
# T1 construct: Purified GST fusion protein containing the Met kinase domain, SUGEN, Inc
# Test: MET transphosphorylation assay (ELISA, poly(glu-tyr) substrate)
# Assay type: biochemical
# Details: not given
# T1 sequence (P08581 1078-1345 limits assumed): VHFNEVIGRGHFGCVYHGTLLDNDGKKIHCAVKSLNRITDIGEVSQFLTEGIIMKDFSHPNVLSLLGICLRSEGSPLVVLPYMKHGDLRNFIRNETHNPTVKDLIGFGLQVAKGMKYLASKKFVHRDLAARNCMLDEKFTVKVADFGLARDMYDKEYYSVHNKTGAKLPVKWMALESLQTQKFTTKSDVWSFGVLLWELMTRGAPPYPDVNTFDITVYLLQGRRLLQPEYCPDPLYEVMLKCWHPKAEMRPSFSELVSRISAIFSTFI
row,SMILES,IC50 [nM]
1,"CC(Oc1cc(-c2ccc(C(=O)N3CCN(C)CC3)cn2)cnc1N)c1c(F)ccc(F)c1Cl (stereo not shown) [Example I-517, {6′-Amino-5′-[1-(2-chloro-3,6-difluoro-phenyl)-ethoxy]-[2,3′]bipyridinyl-5-yl)-(4-methyl-piperazin-1-yl)-methanone]",131
2,"Nc1ncc(-c2cccnc2)cc1OCc1c(F)ccc(F)c1Cl [Example I-501, 5-(2-Chloro-3,6-difluoro-benzyloxy)-[3,3′]bipyridinyl-6-ylamine]",282
3,"CC(Oc1cc(C#CCNC(=O)CN2CCCC2)cnc1N)c1c(Cl)ccc(F)c1Cl (stereo not shown) [Example I-426, N-(3-{6-Amino-5-[1-(2,6-dichloro-3-fluoro-phenyl)-ynyl)-2-pridin-1-y-ehoxy]-pyridin-3-yf}-prop-2-acetamide]",< 9.1

# Same assay, conditions: Table 1; several values in one cell are separated by /
row,SMILES,IC50 [nM]
1,"Nc1ncc(Br)cc1OCc1c(F)cccc1Cl [I(e), 5-Bromo-3-(2-chloro-6-fluoro-benzyloxy)-pyridin-2-ylamine]",> 20000

# Biological target: T2, HGFR (c-MET) (Homo sapiens, UniProt P08581)
# T2 construct: purchased Upstate 14-526
# Test: HGFR continuous-coupled spectrophotometric assay (Ki and % inhibition)
# Assay type: biochemical
# Details: Table 3, column 'Ki(μM) or I(%)': values without % sign; read-out: Ki
# T2 sequence (P08581 25-1390): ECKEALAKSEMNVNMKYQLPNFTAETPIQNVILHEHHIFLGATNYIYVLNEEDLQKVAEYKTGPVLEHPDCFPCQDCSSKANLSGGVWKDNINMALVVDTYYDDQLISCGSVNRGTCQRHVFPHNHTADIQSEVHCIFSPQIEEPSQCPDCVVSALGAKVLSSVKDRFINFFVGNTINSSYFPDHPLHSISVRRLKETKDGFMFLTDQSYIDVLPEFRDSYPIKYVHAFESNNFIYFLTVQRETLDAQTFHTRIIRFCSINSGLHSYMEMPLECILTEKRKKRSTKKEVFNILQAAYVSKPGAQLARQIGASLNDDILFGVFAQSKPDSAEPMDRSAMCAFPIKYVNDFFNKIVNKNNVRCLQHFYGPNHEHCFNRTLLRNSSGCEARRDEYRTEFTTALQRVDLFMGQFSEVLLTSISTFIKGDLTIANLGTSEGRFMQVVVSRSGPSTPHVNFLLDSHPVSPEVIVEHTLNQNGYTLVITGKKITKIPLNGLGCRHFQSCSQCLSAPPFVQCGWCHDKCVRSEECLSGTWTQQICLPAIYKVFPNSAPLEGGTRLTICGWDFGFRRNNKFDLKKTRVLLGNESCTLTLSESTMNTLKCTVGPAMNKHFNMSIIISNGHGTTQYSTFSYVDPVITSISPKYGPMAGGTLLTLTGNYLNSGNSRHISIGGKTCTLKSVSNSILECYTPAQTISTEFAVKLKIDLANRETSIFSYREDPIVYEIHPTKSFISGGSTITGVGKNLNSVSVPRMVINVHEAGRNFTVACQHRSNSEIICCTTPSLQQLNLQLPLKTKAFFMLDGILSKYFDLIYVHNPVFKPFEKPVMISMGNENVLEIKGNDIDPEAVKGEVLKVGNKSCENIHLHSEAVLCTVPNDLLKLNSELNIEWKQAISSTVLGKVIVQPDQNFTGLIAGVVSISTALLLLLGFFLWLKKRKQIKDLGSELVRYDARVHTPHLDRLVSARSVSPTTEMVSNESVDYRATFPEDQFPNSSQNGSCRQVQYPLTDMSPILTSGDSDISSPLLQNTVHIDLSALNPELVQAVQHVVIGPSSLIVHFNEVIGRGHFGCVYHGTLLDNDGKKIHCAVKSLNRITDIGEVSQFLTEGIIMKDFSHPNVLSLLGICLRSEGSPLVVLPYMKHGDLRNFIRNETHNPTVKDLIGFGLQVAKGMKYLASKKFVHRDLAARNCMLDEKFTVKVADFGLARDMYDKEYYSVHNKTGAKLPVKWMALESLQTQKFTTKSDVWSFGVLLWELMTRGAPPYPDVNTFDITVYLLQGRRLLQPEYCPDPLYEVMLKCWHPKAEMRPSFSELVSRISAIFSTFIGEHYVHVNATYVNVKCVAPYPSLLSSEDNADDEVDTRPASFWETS
row,SMILES,Ki [µM]
1,Nc1ncc(-c2ccc(C(=O)N3CCC(N4CCCC4)CC3)cc2)cc1OCc1ccc(-c2ccccc2)cc1 [Example I-651],1.53
2,"CC(Oc1cc(-c2ccc(CN3C[C@@H](C)O[C@@H](C)C3)cc2)cnc1N)c1c(Cl)ccc(F)c1Cl (stereo partly drawn) [Example I-571, 3-[1-(2,6-Dichloro-3-fluoro-phenyl)-ethoxy]-5-(4-((2R,6S)-2,6-dimethyl-morpholin-4-ylmethyl)-phenyl]-pyridin-2-ylamine]",0.27
3,"CC(Oc1cc(-c2ccc(CN3CCOCC3)cc2)cnc1N)c1c(Cl)ccc(F)c1Cl (stereo not shown) [Example I-572, 3-[1-(2,6-Dichloro-3-fluoro-phenyl)-ethoxy]-(4-morpholin-4-ylmethyl-phenyl)-pyridin-2-ylamine]",0.554
4,"CCN1CCN(C(=O)c2ccc(-c3cnc(N)c(OC(C)c4c(Cl)ccc(F)c4Cl)c3)cc2)CC1 (stereo not shown) [Example I-633, (4-{6-Amino-5-[1-(2,6-dichloro-3-fluoro-phenyl)-ethoxy]-pyridin-3-yl}-phenyl)-(4-ethyl-piperazin-1-yl)-methanone]",0.0472

# Same assay, conditions: at 50 nM; Table 5, library products of procedure 40, crude reaction stock; read-out: % inhibition (percent c-MET inhibition)
row,SMILES,inhibition at 0.05 µM [%]
1,CC(Oc1cc(-c2ccc(C(=O)N3CCCCC3CCO)cc2)cnc1N)c1c(Cl)ccc(F)c1Cl [Example L-47],63
2,CC(Oc1cc(-c2ccc(C(=O)N(C)CCO)cc2)cnc1N)c1c(Cl)ccc(F)c1Cl [Example L-104],69
3,CC(C)OCCNC(=O)c1ccc(-c2cnc(N)c(OC(C)c3c(Cl)ccc(F)c3Cl)c2)cc1 [Example L-140],64

# Same assay, conditions: at 1 μM; Table 8, library products of procedure 43, crude reaction stock; read-out: % inhibition (percent c-MET inhibition)
row,SMILES,inhibition at 1 µM [%]
1,CC1CN(C(=O)c2ccc(-c3cnc(N)c(OCc4nc5cc(C(F)(F)F)ccc5s4)c3)cc2)CC(C)N1 (stereo not shown),27
2,CC1CN(C(=O)c2ccc(-c3cnc(N)c(COc4cc(F)ccc4C(F)(F)F)c3)cc2)CC(C)N1 (stereo not shown),17

# Same assay, conditions: cells marked "Ki"; read-out: Ki (printed in the Met IC50 column)
row,SMILES,Ki [µM]
1,"CC(Oc1cc(-c2ccc(OCC(=O)N3CCN(C(=O)OC(C)(C)C)CC3)cc2)cnc1N)c1c(Cl)ccc(F)c1Cl (stereo not shown) [Example I-479, 4-[2-(4-{8-Amino-5-[1-(2,6-dichloro-3-fluoro-phenyl)-ethoxy]-pyridin-3-yl}-phenoxy)-acetyl]-piperazine-1-carboxylic acid tert-butyl ester]",0.016

# Same assay, conditions: read-out: % (inhibition) at 1 μM (printed in the Met IC50 column), at 1 μM
row,SMILES,inhibition at 1 µM [%]
1,"CC(Oc1cc(-c2ccc(C(=O)N3C[C@@H](C)N[C@@H](C)C3)cc2)cnc1N)c1cccc(F)c1C(F)(F)F (stereo partly drawn) [Example I-444, (4-{6-Amino-5-[1-(3-fluoro-2-trinuommethyl-phenyl)-ethoxy]-pyridin-3-yl}-phenyl)-((3R,5S)-3,5-dimethyl-piperazin-1-yl)-methanone]",10
2,"CC(Oc1cc([C@@H](O)CO)cnc1N)c1c(Cl)ccc(F)c1Cl (stereo partly drawn) [Example I-463, (R)-1-{6-Amino-5-[1-(2,6-dichloro-3-fluoro-phenyl)-ethoxy]-pyridin-3-yl}-ethane-1,2-diol]",2
3,"CC(Oc1cc(-c2ccc(C(=O)NCCCN3CCOCC3)cc2)cnc1N)c1cccc(F)c1C(F)(F)F (stereo not shown) [Example I-453, 4-{6-Amino-5-[1-(3-fluoro-2-trifluoromethyl-phenyl)-ethoxy]-pyridin-3-yl}-N-(3-morpholin-4-yl-propyl)-benzamide]",10
4,"CC(Oc1cc(-c2ccc(C(=O)N3CCC[C@@H]3CN3CCCC3)cc2)cnc1N)c1cccc(F)c1C(F)(F)F (stereo partly drawn) [Example I-446, (4-{6 Amino-5-[1-(3-fluoro-2-trifluoromethyl-phenyl)-ethoxy]pyridin-3-yl}-phenyl)-((R) 2 pyrrolidin-1-ylmethyl-pyrrolidin-1-yl)-methanone]",12
5,"CC(Oc1cc(-c2ccc(C(=O)NC3CCN(C)CC3)cc2)cnc1N)c1cccc(F)c1C(F)(F)F (stereo not shown) [Example I-449, 4-{6-Amino-5-[1-(3-fluoro-2-trifluoromethyl-phenyl)-ethoxy]pyridin-3-yl}-N-[1-methylpiperidin-4-yl)-benzamide]",12
6,"COc1c(F)cccc1COc1cc(-c2ccc(C(=O)N3C[C@@H](C)N[C@@H](C)C3)cc2)cnc1N [Example I-470, (4-{6-Amino-5-(3-fluoro-2-methoxy-benzyloxy)-pyridin-3-yl]-phenyl}-((3R,5S)-3,5-dimethyl-piperazin-1-yl)-methanone]",3
7,COc1c(F)cccc1C(C)Oc1cc(-c2ccc(C(=O)N3C[C@@H](C)N[C@@H](C)C3)cc2)cnc1N (stereo partly shown) [Example I-471],1
8,"CC(Oc1cc(CN)cnc1N)c1c(Cl)ccc(F)c1Cl (stereo not shown) [Example I-456, 5-Aminomethyl-3-[1-(2,6-dichloro-3-fluoro-phenyl)-ethoxy]-pyridin-2-ylamine]",0
9,"CC(Oc1cc(-c2ccc(C(=O)NCCN3CCOCC3)cc2)cnc1N)c1cccc(F)c1C(F)(F)F (stereo not shown) [Example I-451, 4-{6-Amino-5-[1-(3-fluoro-2-trifluoromethyl-phenyl)-ethoxy]-pyridin-3-yl}-N-(2-morpholin-4-yl-ethyl)-benzamide]",12
10,"COc1c(F)cccc1COc1cc(Br)cnc1N [Example I-468, 5-Bromo-3-(3-fluoro-2-methoxy-benzyloxy)-pyridin-2-ylamine]",8
11,"CC(=O)NCc1cnc(N)c(OC(C)c2c(Cl)ccc(F)c2Cl)c1 (stereo not shown) [Example I-459, N-{6-Amino-5-[1-(2,6-dichloro-3-fluoro-phenyl)-ethoxy]-pyridin-3-ylmethyl}-acetamide]",2
12,"CC(Oc1cc(C#N)cnc1N)c1c(Cl)ccc(C#N)c1Cl (stereo not shown) [Example I-455, 6-Amino-5-[1-(2,6-dichloro-3-cyano-phenyl)-ethoxy]-nicotinonitrile]",8
13,"COc1c(F)cccc1C(C)Oc1cc(Br)cnc1N (stereo not shown) [Example I-469, 5-Bromo-3-[1-(3-fluoro-2-methoxy-phenyl)-ethoxy]-pyridin-2-ylamine]",7
14,"CC(Oc1cc(-c2ccc(C(=O)N3CCC[C@H]3CN3CCCC3)cc2)cnc1N)c1cccc(F)c1C(F)(F)F (stereo partly drawn) [Example I-445, (4-{6-Amino-5-[1-(3-fluoro-2-trifluoromethyl-phenyl)-ethoxy]-pyuidin-3-yl}-phenyl)-((S)-2-pyrrolidin-1-ylmethyl-pyrrolidin-1-yl)-methanone]",15
15,"CC(Oc1cc(Br)cnc1N)c1cccc(F)c1Cl (stereo not shown) [Example I-486, Bromo-3-[1-(2-chloro-3-fluoro-phenyl)-ethoxy]-pyridin-2-ylamine]",0
16,"CC(Oc1cc([C@H](O)CO)cnc1N)c1c(Cl)ccc(F)c1Cl (stereo partly drawn) [Example I-462, (S)-1-{6 Amino-5-[1-(2,6-dichloro-3-fluoro-phenyl)-ethoxy]-pyridin-3-yl}-ethane-1,2-diol]",2
17,"CC(Oc1cc(-c2ccc(C(=O)N3CCN(C)CC3)cc2)cnc1N)c1cccc(F)c1C(F)(F)F (stereo not shown) [Example I-442, (4-{6-Amino-5-[1-(3-fluoro-2-trifluoromethyl-phenyl)-ethoxy]-pyridin-3-yl}-phenyl)-(4-methyl-piperazin-1-yl)-methanone]",16
18,"Cc1ccc(S(=O)(=O)NCc2cnc(N)c(OC(C)c3c(Cl)ccc(F)c3Cl)c2)cc1 (stereo not shown) [Example I-460, N-{6-Amino-5-[1-(2,6-dichloro-3-fluoro-phenyl)-ethoxy]-pyridin-3-ylmethyl}-4-methyl-benzenesulfonamide]",9
19,"CC(Oc1cc(-c2ccc(C(=O)NCCCN3CCCC3)cc2)cnc1N)c1cccc(F)c1C(F)(F)F (stereo not shown) [Example I-452, 4-{6-Amino-5-[1-(3-fluoro-2-trifluoromethyl-phenyl)-ethoxy]-pyridin-3-yl}-N-(3-pyrrolidin-1-yl-propyl)-benzamide]",3
20,"CC(Oc1cc(-c2ccc(C(=O)N3CCC(N4CCCC4)CC3)cc2)cnc1N)c1cccc(F)c1C(F)(F)F (stereo not shown) [Example I-443, (4-{6-Amino-5-[1-(3-fluoro-2-trifluoromethyl-phenyl)-ethoxy]-pyridin-3-yl}-phenyl)-(4-pyrrolidin-1-yl-piperidin-1yl)-methanone]",13
21,"CC(Oc1cc(CNS(C)(=O)=O)cnc1N)c1c(Cl)ccc(F)c1Cl (stereo not shown) [Example I-458, N-{6-Amino-5-[1-(2,6-dichloro-3-fluorophenyl)-ethoxy]-pyridin-3-ylmethyl}-methanesulfonamide]",0
22,"CC(Oc1cc(-c2ccc(C(=O)NCCN3CCCC3)cc2)cnc1N)c1cccc(F)c1C(F)(F)F (stereo not shown) [Example I-450, 4-{6-Amino-5-[1-(3-fluoro-2-trifluoromethyl-phenyl)-ethoxy]-pyridin-3-yl}-N-(2-pyrrolidin-1-yl-ethyl)-benzamide]",7
23,"CC(Oc1cc(CNC(=O)N2CCC[C@@H]2CN2CCCC2)cnc1N)c1c(Cl)ccc(F)c1Cl (stereo partly drawn) [Example I-457, (R)-2-Pyrrolidin-1-ylmethyl-pyrrolidine-1-carboxylic acid {6-amino-5-[1-(2,6-dichloro-3-fluoro-phenyl)-ethoxy]-pyridin-3-ylmethyl}-amide]",1
